Experiments:
[1] = test system: cardiomyocytes induced from human iPS cells (253G1 strain); assay: Proliferation culture of cardiomyocytes with WNT signal activator CHIR99021, serial subculture (Example 2); format: cell-based; details: for cTnT positive rate (cardiomyocyte purity): CHIR99021 added (1 to 5 μM); for proliferation rate compared with no CHIR99021: CHIR99021 1 to 5 μM; for total cardiomyocyte proliferation: 2.0×10^5 cells/cm^2
Description: A “ratio of multinucleated cardiomyocytes” was determined from a percentage of multinucleated cardiomyocytes in 10,000 cardiomyocytes.
Thereafter, the culture medium was replaced every 3 to 4 days, and culturing was performed for 2 weeks (a first serial subculture).
For the cells obtained after each serial subculture, “cardiomyocyte purity”, “cardiomyocyte proliferation rate”, “ratio of multinucleated cardiomyocytes”, and “average maximum length of multinucleated cardiomyocytes” were determined according to the same procedure as in Example 1.

[2] = test system: cardiomyocyte population (third serial subculture); assay: Drug responsiveness test by calcium imaging; format: cell-based, human; details: terfenadine 300 to 900 nM; calcium signal 10 minutes after addition
Description: The obtained cardiomyocyte population was tested for drug responsiveness. A drug responsiveness test was performed by calcium imaging using a fluorescence microscope. Specifically, the drug responsiveness test was performed by acquiring pulsatile calcium fluorescence movies of cardiomyocytes on a fluorescence microscope Olympus IX83.
In the drug responsiveness test, a mixture having the following composition was adjusted to pH 7.4 and used as a culture solution for cardiomyocytes:
ImageJ-based image analysis software was used for data analysis.

SMILES	cTnT positive rate (cardiomyocyte purity) ([1]; after the first serial subculture, before culturing 90 to 96%)	cTnT positive rate (cardiomyocyte purity) ([1]; after the second serial subculture)	concentration of CHIR99021 at which the cardiomyocyte proliferation rate was the highest ([1]; first and second serial subculture, tested 1, 2, 3, 5 μM)	cardiomyocyte proliferation rate ([1]; first serial subculture (2 weeks), seeding density 2.0×10^5 cells/cm^2, CHIR99021 3 μM)	proliferation rate compared with no CHIR99021 ([1]; first serial subculture)	total cardiomyocyte proliferation ([1]; in total after the second serial subculture, CHIR99021 3 μM)	total cardiomyocyte proliferation ([1]; in total after the third to fourth serial subcultures, CHIR99021 3 μM)	proliferation rate compared with no CHIR99021 ([1]; second serial subculture)	early afterdepolarization (EAD) response [2]
Cc1cnc(-c2cnc(NCCNc3ccc(C#N)cn3)nc2-c2ccc(Cl)cc2Cl)[nH]1 [CHIR99021, 6-[2-[[4-(2,4-dichlorophenyl)-5-(5-methyl-1H-imidazol-2-yl)pyrimidin-2-yl]amino]ethylamino]pyridine-3-carbonitrile]	≥ 90%	≥ 90%	3 µM	4.5 fold	higher proliferation rates	12.6 fold	22.7 fold	higher proliferation rates	
CC(C)(C)c1ccc(C(O)CCCN2CCC(C(O)(c3ccccc3)c3ccccc3)CC2)cc1 (stereo not drawn) [terfenadine]									detected
